Assay results published in patent publication US6670384B2, “Methods of administering epothilone analogs for the treatment of cancer” (Bristol-Myers Squibb Company, priority 2001, dated 2003).
Like-named read-outs stand apart in the source and are kept apart here.

Columns and labels:
[1] = test system: breast tumors; experiment: Anti-tumor response in previously treated cancer patients, breast tumors; type: in vivo, human; details: breast cancer patients previously treated with chemotherapy
Excerpt: (§1) A total of 24 cancer patients (12 male and 12 female) received compound II by IV administration to evaluate the maximum tolerated dose (MTD), the dose limiting toxicity (DLT), the pharmacokinitics and pharmacodynamics, and to evaluate the anti-tumor activity of compound II. The median age (range) of the patients was 57 (34-74). 5 patients had breast cancer, 5 patients had head and neck cancer, 2 patients had sarcoma, 2 patients had colorectal cancer, 2 patients had UPT cancer, 2 patients had melanoma, 2 patients had cancer of the esophagus, 1 patient had renal cancer, 1 patient had cervical cancer, 1 patient had thyroid cancer, and 1 patient had anal cancer. 21 patients had received prior chemotherapy (18 patients received neurotoxic agents and 18 patients received radiotherapy). The median number of prior chemotherapy lines including adjuvant (range) was 2 (1-3).
(§2) In a second study a total of 12 cancer patients (5 male and 7 female) were orally administered compound II on day 1 followed by a 30 minute IV infusion of compound II every week starting on day 7 at a dose of 25 mg/m^2 to evaluate neurotoxicity of compound II. The median age (range) of the patients was 51 (30-65). 4 patients had colorectal cancer, 3 patients had breast cancer, 2 patients had melanoma, 1 patient had renal cancer, 1 patient had sarcoma, and 1 patient had ovary cancer. […]

[2] = Dose escalation study of weekly IV Compound II in cancer patients (MTD, dose limiting toxicity); type: in vivo, human; details: 30 minute IV infusion every week
Excerpt: as §1
Patients were orally administered compound II on day 1 (for dose levels of 20 mg/m^2 and higher) followed by a 30 minute IV infusion of compound II every week starting on day 7. Patients were administered compound II at doses of 1, 2.5, 5, 10, 20, 25, and 30 mg/m^2.

[3] = Stability of the drug during dissolution in tertiary butanol/water and lyophilization; type: physicochemical; details: tertiary butanol/Water for Injection 1:1 at 5 EC, lyophilized at −16 EC 48 hours, dried at 15 EC 48 hours, light protected
Method: [1S-[1R*,3R*(E),7R*,10S*,11R*,12R*,16S*]]-7,11-Dihydroxy-8,8,10,12,16-pentamethyl-3-[1-methyl-2-(2-methyl-4-thiazolyl)ethenyl]-4-aza-17-oxabicyclo[14.1.0]heptadecane-5,9-dione, 9.86 g, was wetted/partially dissolved with 600 mL of a 9:1 mixture of tertiary butanol and Water for Injection USP which had been pre-cooled to 5 EC. Once the drug powder had become completely wetted, dissolution was completed by the addition of 600 mL of a 1:9 mixture of tertiary butanol and Water for Injection and 766 mL of a 1:1 mixture of tertiary butanol and Water for Injection which likewise had been pre-cooled to 5 EC thereby making the final solution a 1:1 mixture. The dissolution was carried out under protection from light.
The solution formed above was promptly lyophilized in a Virtis INOTOP lyophilizer at −16 EC under light protectant conditions over a period of 48 hours. The resultant lyophilized product (lyophile) was then further dried at 15 EC under high vacuum for 48 hours. […] The lyophile was packaged under sterile conditions into 30 mL vials, each containing 10 mg of drug and standard excess to allow for vial/needle/syringe loss.

[4] = Pharmacokinetics of Compound II given orally and intravenously to cancer patients (plasma, LC/MS/MS); type: in vivo, human; details: for Tmax / Cmax / bioavailability: human, plasma; for bioavailability: read-out: % F (absolute bioavailability)
Method: Patients with Advanced Malignancies were administered Compound II weekly as a 30-minute infusion (a course=3 intravenous weekly administrations). Patients received doses of 1, 2.5, 5, 10, 20, 25, or 30 mg/m^2. […] The dose of oral Compound II administered on Day 6 matched the dose of IV Compound II administered on day 1. Serial plasma sampling was obtained on day 6 and day 1 of course 1 to assess pharmacokinetics by an LC/MS/MS.
Samples were analyzed by adding an internal standard to 0.2 mL of plasma sample, precipitating with acetone, and then extracting the supernatant with 1-chlorobutane. The organic layer was removed and evaporated to dryness. The residue was reconstituted and injected into the LC/MS/MS system. Chromatographic separation was achieved, isocratically, on a YMC ODS-AQ column (4.6×50 mm, 3:m) with a mobile phase of acetonitrile:0.01M ammonium acetate, pH 5.0 (65:35). Detection was by negative electrospray tandem mass spectrometry. The standard curve, which ranged from 2 to 500 ng/mL for all analytes and was fitted to a 1/x weighted quadratic regression model.
The propylene glycol/ethanol mixture was prepared by mixing 80 parts by volume of propylene glycol and 20 parts by volume of ethanol in a suitable container and gently swirling the container until the solution was completely mixed.
Buffer for use with Compound II was constituted with water for injection (WFI).
Compound II was prepared for administration to patients by using a suitable syringe to slowly inject 2.5, 5, or 10 mL of the propylene glycol/ethanol mixture into the 20 cc vial containing 25 mg/vial of Compound II, to give concentrations of 10, 5, or 2.5 mg/mL, respectively, depending on the dose to be administered to the patient. The syringe was removed and the vial shaken vigorously for 10 seconds. The vial was placed in a sonication bath and sonicated until the solution became clear. Vials were pooled depending on the dose.
The bottle was shaken vigorously or sonicated with intermittent shaking until a clear solution was obtained.
Following oral administration on day 6, 7 mL blood samples was collected into Becton Dickinson Vacutainer tubes with K3EDTA as anticoagulent (lavender-colored top) according to the following schedule (expressed as hours:minutes from the start of the oral administration): predose, 00:15, 00:30, 00:45, 1:00, 1:30, 2:00, 3:00, 4:00, 6:00, 8:00, 24:00, 48:00, and 72:00. Following IV administration on day 1, 7 mL blood samples were collected into Becton Dickinson Vacutainer tubes with K3EDTA as anticoagulent (lavender-colored top) according to the following schedule (expressed as hours:minutes from the start of the IV infusion):predose, 00:15, 00:30 (end-of infusion), 00:45, 1:00, 1:30, 2:00, 3:00, 4:00, 6:00, 8:00, 24:00, 48:00, and 72:00.
Immediately after blood collection, the Vacutainer tubes were inverted several times to ensure mixing with the anticoagulant and then immediately placed on crushed ice. Within 30 minutes of collection, samples were centrifuged for 5 minutes at approximately 2000×g and 0 to 5 EC. The plasma was then transferred to separate pre-labeled screw-capped polypropylene tubes and stored at −70 EC until bioanalysis. Plasma concentrations of Compound II were analyzed using the LC/MS/MS assay.
The plasma concentration versus time data were analyzed using non-compartmental methods. The pharmacokinetic parameters determined for Compound II included the maximum observed plasma concentration (Cmax), time to reach Cmax (Tmax), area under the plasma concentration time curve from time zero to the time of last sampling time T(AUC(0-T)).
A total of 18 patients have received oral Compound II as a solution on day 6 and by IV on day 1.

[5] = test system: colon tumors; experiment: Anti-tumor response in previously treated cancer patients, colon tumors; type: in vivo, human; details: metastatic colon cancer patients previously treated with chemotherapy
Excerpt: as §1, §2

In the case of `C/C(=C\c1csc(C)n1)C1C[C@@H]2O[C@]2(C)CCC[C@H](C)[C@H](O)[C@@H](C)C(=O)C(C)(C)[C@@H](O)CC(=O)N1` (relative stereo) [Compound II, [1S-[1R*,3R*(E),7R*,10S*,11R*, 12R*,16S*,]]-7,11-Dihydroxy-8,8,10,12,16-pentamethyl-3-[1-methyl-2-(2-methyl-4-thiazolyl)ethenyl]-4-aza-7-oxabicyclo[14.1.0]heptadecane-5,9-dione], the “tumor response to treatment” value [1] is reported as “responded”, the “weekly dose administered without severe toxicity being observed” value [2] is reported as “up to 30 mg/m^2” and the “degradation of the drug during dissolution, lyophilization and drying” value [3] is reported as “No detectable degradation”. The “AUC(0-T)” value ([4]; 20 mg/m^2, IV, patients N=3, mean) was 796 H · ng/mL, the “AUC(0-T)” value ([4]; 20 mg/m^2, oral solution, patients N=3, mean) was 404 H · ng/mL and the “AUC(0-T)” value ([4]; 25 mg/m^2, IV, patients N=11, mean) was 848 H · ng/mL. For the same compound, the “AUC(0-T)” value ([4]; 25 mg/m^2, oral solution, patients N=11, mean) was 533 H · ng/mL, the “AUC(0-T)” value ([4]; 30 mg/m^2, IV, patients N=4, mean) was 1155 H · ng/mL and the “AUC(0-T)” value ([4]; 30 mg/m^2, oral solution, patients N=4, mean) was 708 H · ng/mL. The Tmax ([4]; 20 mg/m2, 20 mg/m^2, IV, patients N=3, median) was 15 min, the Cmax ([4]; 20 mg/m2, 20 mg/m^2, oral solution, patients N=3, mean) was 142 ng/mL and the Tmax ([4]; 20 mg/m2, 20 mg/m^2, oral solution, patients N=3, median) was 60 min. The Tmax ([4]; 25 mg/m2, 25 mg/m^2, IV, patients N=11, median) was 30 min, the Cmax ([4]; 25 mg/m2, 25 mg/m^2, oral solution, patients N=11, mean) was 180 ng/mL and the Tmax ([4]; 25 mg/m2, 25 mg/m^2, oral solution, patients N=11, median) was 30 min. It also gave a Tmax ([4]; 30 mg/m2, 30 mg/m^2, IV, patients N=4, median) of 30 min, a Cmax ([4]; 30 mg/m2, 30 mg/m^2, oral solution, patients N=4, mean) of 274 ng/mL and a Tmax ([4]; 30 mg/m2, 30 mg/m^2, oral solution, patients N=4, median) of 30 min. It also gave a Cmax ([4]; 20 mg/m^2, IV 30-minute infusion, patients N=3, mean) of 251 ng/mL, a bioavailability ([4]; 20 mg/m^2, oral solution vs IV, patients N=3, mean) of 43.5% and a Cmax ([4]; 25 mg/m^2, IV 30-minute infusion, patients N=11, mean) of 447 ng/mL. It also gave a bioavailability ([4]; 25 mg/m^2, oral solution vs IV, patients N=11, mean) of 55.6%, a Cmax ([4]; 30 mg/m^2, IV 30-minute infusion, patients N=4, mean) of 711 ng/mL and a bioavailability ([4]; 30 mg/m^2, oral solution vs IV, patients N=4, mean) of 62.2%. The “tumor response to treatment” value [5] was “responded”.
